# From US5712270A, “2-arylamidothiazole derivatives with CNS activity” (American Home Products Corporation, priority 1996, dated 1998)
# How the values were obtained:
# [1] = system: scopolamine-induced hyperactivity; experiment: Reversal of scopolamine-induced hyperactivity in mice (swim tank); type: in vivo, Male CFW mice; details: Mus musculus, ip, 5 min, 0.3 mg/kg scopolamine.HBr, i.p., mean swimming distance, read-out: minimum effective dose (MED), reversal of scopolamine hyperactivity
# Description: The compound of Example 1 was also tested in accordance with the procedure of Symons et al, Soc. Neuroscience Abstracts 12:2, 897 (1986) in which Male CFW mice, 25 to 35 grams in weight are given the test compound in suitable vehicle plus 0.3 mg/kg scopoolamine.HBr in suitable vehicle, i.p.(3 groups of 12 animals each) or vehicle alone (1 group of 12 animals ) or vehicle plus scopolamine. HBr (1 group of 12 animals). The rates are placed in a swim tank, individually, containing 10 cm H2 O for a period of 5 minutes and the distance each animal swims is recorded.
# [2] = system: memory in patients with mild to moderate Alzheimer's Disease; details: cited from earlier work; for memory improvement in patients: mild to moderate Alzheimer's Disease
# [3] = system: serotonin 5-HT1A receptor; details: standard for anxiolytic activity; cited from earlier work
structure (smiles),measurement,setting,value
"CN(C)CCOC(=O)c1csc(NC(=O)c2cc(C(C)(C)C)c(O)c(C(C)(C)C)c2)n1 [Example 1, 2-[[3,5,-Bis(1,1-dimethylethl)-4-hydroxybenzoyl]amino]-4-thiazolecarboxylicacid 2-(dimethylamino)ethyl ester]",minimal effective dose,[1],3 mg/kg
COC(=O)C1=CCCN(C)C1 [arecoline],memory improvement in patients,[2],memory improvement in patients with mild to moderate Alzheimer's Disease
O=C1CC2(CCCC2)CC(=O)N1CCCCN1CCN(c2ncccn2)CC1 [buspirone],"affinity for the 5-HT1A serotonin receptor subtype (words, buspirone)",[3],potent affinity
Nc1c2c(nc3ccccc13)CCCC2 [tacrine],side effects,[2]; especially at the higher doses,adverse side effects especially at the higher doses
same,memory improvement in patients,[2],improvement in memory can be shown in patients with mild to moderate Alzheimer's Disease
